Measured values reported in patent publication US20230128907A1, “PARIS POLYPHYLLA SAPONIN EXTRACT WITH ACTIVITY AGAINST MULTIDRUG-RESISTANT BACTERIA AND PREPARATION AND USE THEREOF” (XI'AN KANGYUANSHENG BIOMEDICAL TECHNOLOGY CO., LTD., priority 2021, published 2023).
Structures can show the parent of a compound that is named as a salt.

Legend:
Assay type in all cases: cell-based
Escherichia coli [1] = test: MIC by liquid micro-dilution method; parameters: key: “+” means bacterial growth; “−” means no bacterial growth
Method: (§1) The minimum inhibitory concentration (MIC) of the extract was determined by liquid microdilution method.
(§2) Twenty-four hours before the experiment, the test strains preserved in low temperature were taken out and placed at room temperature. A small amount of bacterial liquid was drawn with a pipette, inoculated into the sterilized and cooled growth medium, and placed in a 35° C. incubator for 24 hours. A pipette was used to transfer a small amount of activated bacterial colonies to a sterilized dry test tube, diluted with medium to a turbidity similar to that of a 0.5 McFarland turbidimetric tube (1.5×10^8 CFU/mL), and then diluted with medium by […], so that the bacterial suspension concentration reaches 1.0×10^6 CFU/mL (diluted twice before being added to the wells, and the final bacterial concentration in the system being 5×10^5 CFU/mL) for MIC measurement.
(§3) In a sterile 96-well flat-bottom microculture plate, 100 μL of […] positive control solution was added to the No. […] 2-11 well, respectively. No. 12 well was solvent.
(§4) The plate was incubated in a 30° C. incubator for 24 hours, the experimental results were observed, and the minimum inhibitory concentration (MIC) values were determined. […] The difference was counted as “≤[…].” The above experiments were performed in parallel for 3 times. When the MIC value could be accurately repeated or only differed by one concentration, it was accepted. The higher concentration was used as the MIC value. When the MIC value differed by more than two concentrations, the experiment was repeated until it met the until requested.

[2] = test system: Multidrug-resistant Pseudomonas aeruginosa 174; test: MIC by liquid micro-dilution method; parameters: key: “+” means bacterial growth; “−” means no bacterial growth
Method: as §1, §2, §3, §4

[3] = test system: Multidrug-resistant Staphylococcus aureus 222; test: MIC by liquid micro-dilution method; parameters: key: “+” means bacterial growth; “−” means no bacterial growth
Method: as §1, §2, §3, §4

Salmonella [4] = test: MIC by liquid micro-dilution method; parameters: key: “+” means bacterial growth; “−” means no bacterial growth
Method: as §1, §2, §3, §4

Salmonella [5] = test: In vitro antibacterial activity of combination of extract and antibacterial drug (MIC, FIC)
[6] = test system: Multidrug-resistant Pseudomonas aeruginosa 174; test: as above
Escherichia coli [7] = test: as above
[8] = test system: Multidrug-resistant Staphylococcus aureus 222; test: as above
[9] = Table 4, positive control 128 μg/mL (Table 3)
[10] = Table 6, positive control 128 μg/mL (Table 3)
[11] = Table 7, positive control 128 μg/mL (Table 3)
[12] = Table 8, positive control 128 μg/mL (Table 3)
[13] = drug MIC in combination with the Paris Polyphylla Saponin Extract

CC1CCC2(OC1)OC1CC3C4CC=C5CC(OC6OC(CO)C(OC7OC(C)C(OC8OC(C)C(O)C(O)C8O)C(O)C7O)C(O)C6OC6OC(C)C(O)C(O)C6O)CCC5(C)C4CCC3(C)C1(O)C2C (stereo not drawn) [Polyphyllin VII]
bacterial growth (Escherichia coli [1]; Table 8, 0.25 μg/mL): + | bacterial growth (Escherichia coli [1]; Table 8, 0.5 μg/mL): + | bacterial growth (Escherichia coli [1]; Table 8, 1 μg/mL): + | bacterial growth (Escherichia coli [1]; Table 8, 2 μg/mL): + | bacterial growth (Escherichia coli [1]; Table 8, 4 μg/mL): + | bacterial growth (Escherichia coli [1]; Table 8, 8 μg/mL): + | bacterial growth (Escherichia coli [1]; Table 8, 16 μg/mL): + | bacterial growth (Escherichia coli [1]; Table 8, 32 μg/mL): + | bacterial growth (Escherichia coli [1]; Table 8, 64 μg/mL): + | bacterial growth (Escherichia coli [1]; Table 8, 128 μg/mL): + | bacterial growth (Escherichia coli [1]; Table 8, 256 μg/mL): + | bacterial growth (Escherichia coli [1]; Table 8, 512 μg/mL): + | bacterial growth (Escherichia coli [1]; Table 8, 1024 μg/mL): + | bacterial growth ([2]; Table 8, 0.25 μg/mL): + | bacterial growth ([2]; Table 8, 0.5 μg/mL): + | bacterial growth ([2]; Table 8, 1 μg/mL): + | bacterial growth ([2]; Table 8, 2 μg/mL): + | bacterial growth ([2]; Table 8, 4 μg/mL): + | bacterial growth ([2]; Table 8, 8 μg/mL): + | bacterial growth ([2]; Table 8, 16 μg/mL): + | bacterial growth ([2]; Table 8, 32 μg/mL): + | bacterial growth ([2]; Table 8, 64 μg/mL): + | bacterial growth ([2]; Table 8, 128 μg/mL): + | bacterial growth ([2]; Table 8, 256 μg/mL): + | bacterial growth ([2]; Table 8, 512 μg/mL): + | bacterial growth ([2]; Table 8, 1024 μg/mL): + | bacterial growth ([3]; Table 8, 0.25 μg/mL): + | bacterial growth ([3]; Table 8, 0.5 μg/mL): + | bacterial growth ([3]; Table 8, 1 μg/mL): + | bacterial growth ([3]; Table 8, 2 μg/mL): + | bacterial growth ([3]; Table 8, 4 μg/mL): + | bacterial growth ([3]; Table 8, 8 μg/mL): + | bacterial growth ([3]; Table 8, 16 μg/mL): + | bacterial growth ([3]; Table 8, 32 μg/mL): + | bacterial growth ([3]; Table 8, 64 μg/mL): + | bacterial growth ([3]; Table 8, 128 μg/mL): + | bacterial growth ([3]; Table 8, 256 μg/mL): + | bacterial growth ([3]; Table 8, 512 μg/mL): + | bacterial growth ([3]; Table 8, 1024 μg/mL): + | bacterial growth (Salmonella [4]; Table 8, 0.25 μg/mL): + | bacterial growth (Salmonella [4]; Table 8, 0.5 μg/mL): + | bacterial growth (Salmonella [4]; Table 8, 1 μg/mL): + | bacterial growth (Salmonella [4]; Table 8, 2 μg/mL): + | bacterial growth (Salmonella [4]; Table 8, 4 μg/mL): + | bacterial growth (Salmonella [4]; Table 8, 8 μg/mL): + | bacterial growth (Salmonella [4]; Table 8, 16 μg/mL): + | bacterial growth (Salmonella [4]; Table 8, 32 μg/mL): + | bacterial growth (Salmonella [4]; Table 8, 64 μg/mL): + | bacterial growth (Salmonella [4]; Table 8, 128 μg/mL): + | bacterial growth (Salmonella [4]; Table 8, 256 μg/mL): + | bacterial growth (Salmonella [4]; Table 8, 512 μg/mL): + | bacterial growth (Salmonella [4]; Table 8, 1024 μg/mL): +

C[C@H]1COc2c(N3CCN(C)CC3)c(F)cc3c(=O)c(C(=O)O)cn1c23 [Levofloxacin hydrochloride]
bacterial growth (Salmonella [4]; [9]): − | bacterial growth (Salmonella [4]; [10]): − | bacterial growth (Salmonella [4]; [11]): − | bacterial growth (Salmonella [4]; [12]): − | Combination Treatment MIC Combination (Salmonella [5]; [13]): 2 µg/mL | Combination Treatment MIC Single (Salmonella [5]; drug alone): 4 µg/mL

Gentamicin sulfate
bacterial growth [2, 9]: − | bacterial growth [2, 12]: − | Combination Treatment MIC Combination [6, 13]: 0.125 µg/mL | Combination Treatment MIC Single ([6]; drug alone): 0.125 µg/mL

CC1CCC2(OC1)OC1CC3C4CC=C5CC(OC6OC(CO)C(OC7OC(C)C(OC8OC(C)C(O)C(O)C8O)C(O)C7O)C(O)C6OC6OC(C)C(O)C(O)C6O)CCC5(C)C4CCC3(C)C1C2C (stereo not drawn) [Polyphyllin II]
bacterial growth (Escherichia coli [1]; Table 6, 0.25 μg/mL): + | bacterial growth (Escherichia coli [1]; Table 6, 0.5 μg/mL): + | bacterial growth (Escherichia coli [1]; Table 6, 1 μg/mL): + | bacterial growth (Escherichia coli [1]; Table 6, 2 μg/mL): + | bacterial growth (Escherichia coli [1]; Table 6, 4 μg/mL): + | bacterial growth (Escherichia coli [1]; Table 6, 8 μg/mL): + | bacterial growth (Escherichia coli [1]; Table 6, 16 μg/mL): + | bacterial growth (Escherichia coli [1]; Table 6, 32 μg/mL): + | bacterial growth (Escherichia coli [1]; Table 6, 64 μg/mL): + | bacterial growth (Escherichia coli [1]; Table 6, 128 μg/mL): + | bacterial growth (Escherichia coli [1]; Table 6, 256 μg/mL): + | bacterial growth (Escherichia coli [1]; Table 6, 512 μg/mL): + | bacterial growth (Escherichia coli [1]; Table 6, 1024 μg/mL): + | bacterial growth ([3]; Table 6, 0.25 μg/mL): + | bacterial growth ([3]; Table 6, 0.5 μg/mL): + | bacterial growth ([3]; Table 6, 1 μg/mL): + | bacterial growth ([3]; Table 6, 2 μg/mL): + | bacterial growth ([3]; Table 6, 4 μg/mL): + | bacterial growth ([3]; Table 6, 8 μg/mL): + | bacterial growth ([3]; Table 6, 16 μg/mL): + | bacterial growth ([3]; Table 6, 32 μg/mL): + | bacterial growth ([3]; Table 6, 64 μg/mL): + | bacterial growth ([3]; Table 6, 128 μg/mL): + | bacterial growth ([3]; Table 6, 256 μg/mL): + | bacterial growth ([3]; Table 6, 512 μg/mL): + | bacterial growth ([3]; Table 6, 1024 μg/mL): + | bacterial growth (Salmonella [4]; Table 6, 0.25 μg/mL): + | bacterial growth (Salmonella [4]; Table 6, 0.5 μg/mL): + | bacterial growth (Salmonella [4]; Table 6, 1 μg/mL): + | bacterial growth (Salmonella [4]; Table 6, 2 μg/mL): + | bacterial growth (Salmonella [4]; Table 6, 4 μg/mL): + | bacterial growth (Salmonella [4]; Table 6, 8 μg/mL): + | bacterial growth (Salmonella [4]; Table 6, 16 μg/mL): + | bacterial growth (Salmonella [4]; Table 6, 32 μg/mL): + | bacterial growth (Salmonella [4]; Table 6, 64 μg/mL): + | bacterial growth (Salmonella [4]; Table 6, 128 μg/mL): + | bacterial growth (Salmonella [4]; Table 6, 256 μg/mL): + | bacterial growth (Salmonella [4]; Table 6, 512 μg/mL): + | bacterial growth (Salmonella [4]; Table 6, 1024 μg/mL): +

CO/N=C(\C(=O)N[C@@H]1C(=O)N2C(C(=O)O)=C(CSc3nc(=O)c(=O)[nH]n3C)CS[C@H]12)c1csc(N)n1 [Ceftriaxone sodium]
bacterial growth (Escherichia coli [1]; [9]): − | bacterial growth (Escherichia coli [1]; [10]): − | bacterial growth (Escherichia coli [1]; [11]): − | bacterial growth (Escherichia coli [1]; [12]): − | Combination Treatment MIC Combination (Escherichia coli [7]; [13]): 0.5 µg/mL | Combination Treatment MIC Single (Escherichia coli [7]; drug alone): 2 µg/mL

Cc1nnc(SCC2=C(C(=O)O)N3C(=O)[C@@H](NC(=O)Cn4cnnn4)[C@H]3SC2)s1 [Cefazolin sodium]
bacterial growth [3, 9]: − | bacterial growth [3, 10]: − | bacterial growth [3, 12]: − | Combination Treatment MIC Combination [8, 13]: 16 µg/mL | Combination Treatment MIC Single ([8]; drug alone): 128 µg/mL

C[C@@H]1CC[C@@]2(OC1)O[C@H]1C[C@H]3[C@@H]4CC=C5C[C@@H](O[C@@H]6O[C@H](CO)[C@@H](O)[C@H](O)[C@H]6O[C@@H]6O[C@@H](C)[C@H](O)[C@@H](O)[C@H]6O)CC[C@]5(C)[C@H]4CC[C@]3(C)[C@@]1(O)[C@@H]2C [Polyphyllin VI]
bacterial growth (Escherichia coli [1]; Table 7, Conc. 0.25 μg/mL): + | bacterial growth (Escherichia coli [1]; Table 7, Conc. 0.5 μg/mL): + | bacterial growth (Escherichia coli [1]; Table 7, Conc. 1 μg/mL): + | bacterial growth (Escherichia coli [1]; Table 7, Conc. 2 μg/mL): + | bacterial growth (Escherichia coli [1]; Table 7, Conc. 4 μg/mL): + | bacterial growth (Escherichia coli [1]; Table 7, Conc. 8 μg/mL): + | bacterial growth (Escherichia coli [1]; Table 7, Conc. 16 μg/mL): + | bacterial growth (Escherichia coli [1]; Table 7, Conc. 32 μg/mL): + | bacterial growth (Escherichia coli [1]; Table 7, Conc. 64 μg/mL): + | bacterial growth (Escherichia coli [1]; Table 7, Conc. 128 μg/mL): + | bacterial growth (Salmonella [4]; Table 7, Conc. 0.25 μg/mL): + | bacterial growth (Salmonella [4]; Table 7, Conc. 0.5 μg/mL): + | bacterial growth (Salmonella [4]; Table 7, Conc. 1 μg/mL): + | bacterial growth (Salmonella [4]; Table 7, Conc. 2 μg/mL): + | bacterial growth (Salmonella [4]; Table 7, Conc. 4 μg/mL): + | bacterial growth (Salmonella [4]; Table 7, Conc. 8 μg/mL): + | bacterial growth (Salmonella [4]; Table 7, Conc. 16 μg/mL): + | bacterial growth (Salmonella [4]; Table 7, Conc. 32 μg/mL): + | bacterial growth (Salmonella [4]; Table 7, Conc. 64 μg/mL): + | bacterial growth (Salmonella [4]; Table 7, Conc. 128 μg/mL): +
